In brackets after ≈: the same amount, converted by molar mass.
Assays:
NF-κB = details: in vitro experiments; cited from earlier work
STAT3 = STAT3 (Homo sapiens, UniProt P40763); details: Ren X, et al. ACS Med Chem Lett., 2010; cited from earlier work
[1] = cited from earlier work
physchem = format: physicochemical
Description: Niclosamide ethanolamine salt (niclosamide) was dissolved and titrated (2-fold) in methanol to generate standard curves. The linear range of niclosamide quantification using UV spectrometry (333 nm) was established to be 0.006-0.1 mM. A suspension of niclosamide was prepared in H2O at a concentration of 32.7 mg/ml (100 mM) by vigorous vortexing. A stock solution of rhamnolipids were prepared in H2O at a concentration of 400 mg/ml and diluted appropriately prior to the addition of niclosamide in the presence or absence of 20% glycerol. Niclosamide was added to a final concentration of 10 mM. The solutions were vortexed vigorously, warmed at 37° C. for 5 minutes, vortexed vigorously, and then centrifuged at 17,000 RCF for 5 minutes to remove any large particulates. The supernatant of each sample was assayed for soluble niclosamide by diluting 1:10 to 1:100 in methanol and comparing to a niclosamide standard curve.

Chain of STAT3 (P40763 whole entry, species assumed): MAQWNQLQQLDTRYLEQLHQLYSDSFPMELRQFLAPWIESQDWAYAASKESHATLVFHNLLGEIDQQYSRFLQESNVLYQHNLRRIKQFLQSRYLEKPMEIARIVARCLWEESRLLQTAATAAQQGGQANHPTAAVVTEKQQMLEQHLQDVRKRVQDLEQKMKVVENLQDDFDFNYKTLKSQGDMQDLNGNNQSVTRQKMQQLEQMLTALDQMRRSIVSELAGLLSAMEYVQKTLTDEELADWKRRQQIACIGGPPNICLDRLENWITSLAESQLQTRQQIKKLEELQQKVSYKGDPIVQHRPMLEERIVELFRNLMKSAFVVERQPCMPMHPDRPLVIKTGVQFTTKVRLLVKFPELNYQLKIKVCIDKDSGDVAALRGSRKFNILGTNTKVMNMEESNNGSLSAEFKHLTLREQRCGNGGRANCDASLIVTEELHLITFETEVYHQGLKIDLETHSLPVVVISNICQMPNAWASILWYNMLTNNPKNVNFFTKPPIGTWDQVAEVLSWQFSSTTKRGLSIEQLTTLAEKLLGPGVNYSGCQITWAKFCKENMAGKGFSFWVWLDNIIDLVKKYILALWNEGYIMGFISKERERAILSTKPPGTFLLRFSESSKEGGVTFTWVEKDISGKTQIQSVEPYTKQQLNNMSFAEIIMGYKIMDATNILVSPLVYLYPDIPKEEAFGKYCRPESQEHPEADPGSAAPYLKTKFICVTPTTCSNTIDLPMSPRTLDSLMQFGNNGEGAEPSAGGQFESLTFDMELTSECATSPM

Compound | inhibition of NF-κB transcription, DNA binding, TNF-induced IκBα phosphorylation, p65 translocation, downstream gene expression (NF-κB) | inhibition of activation and transcriptional function of STAT3 (STAT3) | solubility in DMSO ([1]; DMSO) | solubility in ethanol ([1]; ethanol) [µM] | solubility in organic solvents ([1]; ether, ethanol, chloroform, acetone and DMSO) | water solubility ([1]; water, 20° C.) [µg/mL] | increase of solubility (physchem; 5 min) | solubility in distilled water ([1]; distilled water, 20° C.) [µg/mL] | solubility at 5 min (physchem; 37 °C, water, thermodynamic from solid, Soluble Niclosamide mM, ±SD) [mM]
O=C(Nc1ccc([N+](=O)[O-])cc1Cl)c1cc(Cl)ccc1O [Niclosamide] | inhibits | potently inhibits | up to 10 mM | 22000 (≈ 7200 µg/mL) | sparingly soluble | 5 to 8 | more than 3 fold | – | –
O=C(Nc1ccc([N+](=O)[O-])cc1Cl)c1cc(Cl)ccc1O [Niclosamide ethanolamine, niclosamide ethanolamine] | – | – | – | – | – | – | – | 180 to 280 | 1.06 ± 0.053 (≈ 347 µg/mL)
